Here are results for 2 compounds from US20240293405A1, “(1H-PYRROLO[2,3-B]PYRIDIN-1-YL)PYRIMIDIN-2-YL-AMINO-PHENYL-ACRYLAMIDE INHIBITORS OF EGFR FOR USE IN THE TREATMENT OF BRAIN TUMORS” (Dana-Farber Cancer Institute, Inc., priority 2021, published 2024).

“And” between values parts separate entries of the source, which are not always exact repeats. Identical values can stand only once. Like-named read-outs stand apart in the source and are kept apart here.

Data set [1] in a line: Pharmacokinetics in rats (IV, PO). The class given is in vivo, rat. The following applies: rat, plasma, Compound 2 as metabolite. The text has this: Exposure was generally dose proportional.
The nature of data set [2]: Oral dog 4-week toxicity study with toxicokinetics. The class given is in vivo, beagle dogs. Conditions: beagle, in vivo, dog Day 28 mean, Compound 2 as metabolite; for AUC(0-t): read-out: AUC0-24. As for the experimental part:
Compound 1 (0, 10, 30, and 100 mg/kg/day) was given orally, once daily by gavage, to male and female beagle dogs (4/sex) for up to 28 days. […] The cause of death in this high-dose male was attributed to myocardial degeneration. This lesion was not observed in any other dog on study. Increases in alkaline phosphatase, globulin, cholesterol, triglycerides and fibrinogen and decreased reticulocyte counts noted in the high-dose group at mid-study returned towards baseline by the end of the study following 11/12 days of recovery. Testicular changes at all doses (seminiferous epithelial vacuolation at 10 and 30 mg/kg and degeneration/atrophy at 100 mg/kg) were not reversible in this short-term study; the reversibility period was not long enough to assess reversibility of testicular changes.
The increases were generally dose-proportional or greater-than dose-proportional on Day 1 and Day 28. Gender difference was not observed. No significant accumulation of Compound 1 or Compound 2 was observed.
Thirty-two beagle dogs (conventional, naive) were divided into four groups. Each group consists of four male and four female. Group 1 beagle dogs were administered vehicle and groups 2-4 beagle dogs were administered Compound 1 at 10 mg/kg, 30 mg/kg, and 100 mg/kg, respectively, by oral gavage once daily for 28 consecutive days (Table 15). […] Cmax (ng/mL) and AUClast (hr*ng/mL) of Compound 1 on day 1 were obtained for groups 2-4 (Table 15).

Data set [3] in a line: Cardiovascular function (telemetry). The class given is in vivo, dog. The following applies: plasma; dog, 100 mg/kg Compound 1 PO; M38 as metabolite; read-out: estimated single-dose Cmax. How it is done:
This arrythmia was not associated with maximum plasma concentration (Cmax) or Tmax of either parent or metabolite. No definitive link to the test article could be identified. Given the unexplained reversible arrythmia in this high-dose (100 mg/kg) telemetry dog, routine electrocardiogram (ECG) monitoring in Phase 1 is recommended.

A short description of data set [4]: Brain and plasma exposure after 5 hour intravenous infusion. The class given is in vivo, Sprague Dawley rats. The following applies: for concentration at 5 h / Kp at 5 h / concentration at 1 h / concentration at 2 h / concentration at 3 h: male, Sprague Dawley, 3 mg/kg; for concentration at 5 h / concentration at 1 h / concentration at 2 h / concentration at 3 h: intravenous; for Kp at 5 h: iv, read-out: Brain/Plasma (ratios). As for the experimental part:
A single IV infustion for 5 hours was administered to each animal, which were then twice observed clinically (30 minutes to 1 hour post-posing and at the end of the study (TTerminal). Blood samples were collected at 5 time points from each animal over the 5 hour infusion period (5 minutes, 1 hour, 2, hours, 3 hours and TTerminal) and processed to plasma. Brains were collected at Tterminal (blotted, weighed, and snap frozen) and brain exposure was compared. […]

For data set [5], the system named is 468 human kinases and disease relevant mutant variants. Briefly: Kinase selectivity binding panel (468 kinases). The following applies: 468 kinase panel, 1 μM free base. As for the experimental part:
(§1) Compound 1 and Compound 2 (major metabolite) were evaluated in a panel of 468 human kinases and disease relevant mutant variants. Compound 1 and Compound 2 bound to few non-mutant kinases at <1% of control. […] While there is some variability between Compound 1 and Compound 2, it is clear that both compounds are very effective at binding to a large panel of mutant kinases. […] Binding constant to wild type EGFR was 4.9 nM.

Another data set deals with NSCLC brain metastases. Briefly: NSCLC brain metastases in SCID mice. The following applies: 25 mg/kg; […].
In data set [6] the test system is NCI-H1975 cells (EGFR L858R/T790M mutation). Briefly: Cell viability assay, NCI-H1975 (CellTiter-Glo). The class given is cell-based. The following applies: Homo sapiens, NCI-H1975, 72 h, read-out: IC50, cell viability. From the text:
(§2) CellTier-Glo (Promega) assay kit (https://www.promega.com/resources/protocols/technical-bulletins/0/celltiter-glo-luminescentcell-viability-assay-protocol/) was used here.
On the technique in general: In ATP-based viability assays light output follows the ATP content of the culture.

Another data set addresses PDGFRB (Homo sapiens, UniProt P09619). Briefly: Kinase binding constant (Kd). As for the experimental part:
(§3) EGFR amplifications and/or mutations are common in GBM, estimated to occur in over 50% of patients.
as §1

In the next data set the target is ALK (Homo sapiens, UniProt Q9UM73). Kind of data set: Kinase binding constant (Kd). How it is done: as §3, §1
In another data set the target is PDGFRA (Homo sapiens, UniProt P16234). Briefly: Kinase binding constant (Kd). How it is done:
as §3, §1

A short description of data set [7]: Body weight over the course of treatment in mice. The class given is in vivo. Conditions: 25 mg/kg; study endpoint reached within one month.
In a further data set the test system is 293-EGFRvIII cells. Kind of data set: Cell viability of 293-EGFRvIII cells (CellTiter-Glo). The class given is cell-based, human. Conditions: Homo sapiens, 72 h, read-out: IC50, viability of 293-EGFRvIII cells. As for the experimental part: (§4) Cells were seeded in 96-well plates at a density of 1,000 cells per well and treated with two-fold serial dilutions of compounds with a starting concentration of 20 μM. Cell viability was assessed after three days of treatment by CellTiter-Glo (Promega). Curve fitting analysis and IC50 value determination were performed using GraphPad Prism 8.

The next data set has as its system U251-EGFRvIII cells. Briefly: Viability/proliferation of U251-EGFRvIII cells. The class given is cell-based, human. How it is done: as §4
In parallel, the conventional human GBM U251 cell line was used as a surrogate model for both in vitro and in vivo studies. U251 cells were engineered to stably express EGFRvIII (U251-EGFRvIII) via retroviral-mediated gene transfer.

Data set [8] has as its system PC-9 cells (EGFR exon 19 deletion). Kind of data set: Cell viability assay, PC-9 (CellTiter-Glo). The class given is cell-based. The following applies: Homo sapiens, PC-9, read-out: IC50, cell viability.
Text: as §2

The next data set has as its system P-gp, Bcrp. The following applies: previously published report; cited from earlier work.
Setting [9] is: female, 10 mg/kg Compound 1 PO, F.
The mark [10] stands for this setting: female, 30 mg/kg Compound 1 PO, F.
[11] abbreviates: male, 10 mg/kg Compound 1 PO, M.
Setting [12] is: male, 30 mg/kg Compound 1 PO, M.
Setting [13] is: 3 mg/kg IV infusion over 5 h, 5 h, individual animal, Compound 2 as metabolite in Compound 1-dosed rats.

Chain of ALK (Q9UM73 19-1620): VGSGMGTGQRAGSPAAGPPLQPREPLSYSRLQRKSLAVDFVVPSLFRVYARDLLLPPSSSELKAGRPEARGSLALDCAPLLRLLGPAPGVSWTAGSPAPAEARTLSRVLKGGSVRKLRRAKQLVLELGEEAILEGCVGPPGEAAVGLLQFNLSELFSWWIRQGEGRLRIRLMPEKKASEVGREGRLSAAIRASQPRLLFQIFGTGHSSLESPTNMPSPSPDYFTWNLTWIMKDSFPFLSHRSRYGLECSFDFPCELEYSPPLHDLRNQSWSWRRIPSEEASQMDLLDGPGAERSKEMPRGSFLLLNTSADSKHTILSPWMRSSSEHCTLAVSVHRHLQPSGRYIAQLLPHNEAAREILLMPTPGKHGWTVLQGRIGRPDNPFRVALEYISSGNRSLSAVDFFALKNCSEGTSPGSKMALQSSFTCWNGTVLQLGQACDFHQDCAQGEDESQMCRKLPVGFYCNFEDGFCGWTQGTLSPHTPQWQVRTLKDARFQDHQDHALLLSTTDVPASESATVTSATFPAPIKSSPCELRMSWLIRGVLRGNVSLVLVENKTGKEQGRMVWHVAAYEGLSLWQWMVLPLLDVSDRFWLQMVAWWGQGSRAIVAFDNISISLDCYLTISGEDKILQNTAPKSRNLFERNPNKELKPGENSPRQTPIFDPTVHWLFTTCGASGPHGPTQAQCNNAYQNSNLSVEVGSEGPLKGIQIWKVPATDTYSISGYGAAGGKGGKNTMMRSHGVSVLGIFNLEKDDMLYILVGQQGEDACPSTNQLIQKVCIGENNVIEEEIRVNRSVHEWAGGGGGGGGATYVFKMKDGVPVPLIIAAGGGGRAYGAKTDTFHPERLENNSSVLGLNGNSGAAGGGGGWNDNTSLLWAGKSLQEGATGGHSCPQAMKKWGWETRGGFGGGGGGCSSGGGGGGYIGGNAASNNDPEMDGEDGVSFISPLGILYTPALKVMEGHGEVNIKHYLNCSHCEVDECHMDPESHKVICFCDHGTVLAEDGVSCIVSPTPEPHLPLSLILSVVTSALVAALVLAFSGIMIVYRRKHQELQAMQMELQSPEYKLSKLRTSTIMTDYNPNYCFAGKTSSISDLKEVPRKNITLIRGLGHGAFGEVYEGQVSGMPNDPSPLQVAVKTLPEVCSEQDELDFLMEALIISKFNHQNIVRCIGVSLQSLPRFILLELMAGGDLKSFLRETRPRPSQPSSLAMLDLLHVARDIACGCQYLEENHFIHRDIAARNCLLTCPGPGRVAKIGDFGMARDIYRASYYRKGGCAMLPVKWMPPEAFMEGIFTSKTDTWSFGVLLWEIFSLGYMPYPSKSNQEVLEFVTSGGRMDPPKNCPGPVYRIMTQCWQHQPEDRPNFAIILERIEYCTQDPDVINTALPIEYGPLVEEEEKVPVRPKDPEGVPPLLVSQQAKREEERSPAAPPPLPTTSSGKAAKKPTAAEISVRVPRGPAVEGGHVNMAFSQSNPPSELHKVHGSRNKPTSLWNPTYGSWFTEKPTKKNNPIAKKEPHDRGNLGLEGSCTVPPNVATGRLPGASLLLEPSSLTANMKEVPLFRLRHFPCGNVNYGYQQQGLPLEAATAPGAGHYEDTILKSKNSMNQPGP
Chain of PDGFRA (P16234 24-1089): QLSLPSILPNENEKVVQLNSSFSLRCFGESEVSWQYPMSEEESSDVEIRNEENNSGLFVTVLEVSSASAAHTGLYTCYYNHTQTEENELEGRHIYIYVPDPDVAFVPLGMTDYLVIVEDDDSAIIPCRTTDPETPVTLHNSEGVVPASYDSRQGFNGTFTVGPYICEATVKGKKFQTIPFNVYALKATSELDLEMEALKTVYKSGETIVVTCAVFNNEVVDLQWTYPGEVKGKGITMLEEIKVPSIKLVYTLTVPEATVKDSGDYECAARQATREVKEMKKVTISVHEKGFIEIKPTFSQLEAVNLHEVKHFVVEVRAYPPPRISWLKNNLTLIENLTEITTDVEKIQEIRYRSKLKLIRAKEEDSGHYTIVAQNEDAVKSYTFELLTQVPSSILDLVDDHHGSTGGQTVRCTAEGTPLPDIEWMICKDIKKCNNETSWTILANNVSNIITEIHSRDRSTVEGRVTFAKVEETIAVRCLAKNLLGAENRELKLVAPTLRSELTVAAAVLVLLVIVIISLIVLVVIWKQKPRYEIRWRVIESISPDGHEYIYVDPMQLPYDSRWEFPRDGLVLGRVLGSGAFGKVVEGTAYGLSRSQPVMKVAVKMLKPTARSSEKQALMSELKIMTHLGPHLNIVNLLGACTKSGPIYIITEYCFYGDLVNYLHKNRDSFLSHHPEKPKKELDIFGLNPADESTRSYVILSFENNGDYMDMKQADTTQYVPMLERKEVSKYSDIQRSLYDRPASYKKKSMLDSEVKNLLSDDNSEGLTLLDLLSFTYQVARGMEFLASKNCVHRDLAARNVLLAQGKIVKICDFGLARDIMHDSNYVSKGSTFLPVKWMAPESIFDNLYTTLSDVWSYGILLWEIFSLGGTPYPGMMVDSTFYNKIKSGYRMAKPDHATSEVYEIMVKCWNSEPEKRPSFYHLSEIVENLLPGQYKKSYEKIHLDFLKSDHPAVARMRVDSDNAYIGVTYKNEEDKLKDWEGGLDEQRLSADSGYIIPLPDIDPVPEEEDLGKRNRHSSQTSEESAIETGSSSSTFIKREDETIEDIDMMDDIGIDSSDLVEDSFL
Chain of PDGFRB (P09619 33-1106): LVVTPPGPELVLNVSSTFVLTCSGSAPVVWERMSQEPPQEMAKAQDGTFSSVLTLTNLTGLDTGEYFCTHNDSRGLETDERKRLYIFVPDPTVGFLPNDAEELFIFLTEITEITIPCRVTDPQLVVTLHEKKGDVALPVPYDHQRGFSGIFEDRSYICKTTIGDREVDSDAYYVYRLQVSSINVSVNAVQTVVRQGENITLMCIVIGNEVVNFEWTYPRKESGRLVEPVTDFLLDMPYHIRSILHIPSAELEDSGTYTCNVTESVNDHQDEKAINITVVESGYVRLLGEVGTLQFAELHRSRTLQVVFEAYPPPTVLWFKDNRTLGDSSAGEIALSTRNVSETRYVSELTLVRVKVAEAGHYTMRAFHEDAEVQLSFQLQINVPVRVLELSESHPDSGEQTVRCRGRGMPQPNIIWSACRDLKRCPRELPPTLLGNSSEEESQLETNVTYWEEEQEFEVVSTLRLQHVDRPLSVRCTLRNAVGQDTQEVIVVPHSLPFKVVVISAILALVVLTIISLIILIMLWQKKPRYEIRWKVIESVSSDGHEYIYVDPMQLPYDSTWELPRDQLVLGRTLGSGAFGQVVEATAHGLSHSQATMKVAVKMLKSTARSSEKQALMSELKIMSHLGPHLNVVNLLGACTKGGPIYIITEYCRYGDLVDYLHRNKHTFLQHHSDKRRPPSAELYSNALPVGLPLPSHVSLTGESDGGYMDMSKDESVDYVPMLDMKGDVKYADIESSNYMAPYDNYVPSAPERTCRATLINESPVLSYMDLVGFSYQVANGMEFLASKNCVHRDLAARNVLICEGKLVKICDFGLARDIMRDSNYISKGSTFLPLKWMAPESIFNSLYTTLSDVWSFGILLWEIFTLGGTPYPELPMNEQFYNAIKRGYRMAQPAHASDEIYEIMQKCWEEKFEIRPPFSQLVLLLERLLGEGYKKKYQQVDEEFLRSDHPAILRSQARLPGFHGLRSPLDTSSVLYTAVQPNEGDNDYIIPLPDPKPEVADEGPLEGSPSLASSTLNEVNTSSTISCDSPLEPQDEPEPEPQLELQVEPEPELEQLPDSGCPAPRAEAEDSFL

As a reminder, the half-life is the time needed for the level to fall by half in the phase considered. A word on the Tmax: it is the time at which the peak concentration occurs. The Cmax is the peak of the concentration-time curve. `C=CC(=O)Nc1cc(Nc2nccc(-n3ccc4cccnc43)n2)c(OC)cc1N(C)CCNC` [Compound 2, N-(5-((4-(1H-pyrrolo[2,3-b]pyridin-1-yl)pyrimidin-2-yl)amino)-4-methoxy-2-(methyl(2-(methylamino)ethyl)amino)phenyl)acrylamide]: in data set [1], the half-life was ~9 h. The time of peak concentration (Tmax) in data set [1] (po) is ~7 h. Also, the Cmax in data set [2] (setting [9]) is 242 ng/mL; in data set [2] (setting [10]), 161 ng/mL; in [2] (setting [11]), 143 ng/mL; in data set [2] (setting [12]) it was 263 ng/mL; in data set [3], ~367 ng/mL and ~750 nM. For the same compound, the AUC(0-t) in data set [2] (setting [9]) is 3360 ng·h/mL; in [2] (setting [10]) it was 1790 ng·h/mL; in [2] (setting [11]) it was 1420 ng·h/mL; in data set [2] (setting [12]) it was 2980 ng·h/mL. Further, the “Plasma Concentration” value in data set [4] (3 mg/kg IV infusion over 5 h, 0.083 h, individual animal, Compound 2 as metabolite in Compound 1-dosed rats) is “BLQ”; in [4] (3 mg/kg IV infusion over 5 h, 0.083 h, mean n=6, Compound 2 as metabolite) it was “BLQ”; in data set [4] (3 mg/kg IV infusion over 5 h, 1 h, individual animal, Compound 2 as metabolite in Compound 1-dosed rats) it was 3.47 ng/mL (2×) and 3.14 ng/mL and 3.28 ng/mL and 2.71 ng/mL; in data set [4] (3 mg/kg IV infusion over 5 h, 2 h, individual animal, Compound 2 as metabolite in Compound 1-dosed rats), 7.75 ng/mL and 6.99 ng/mL and 8.41 ng/mL and 7.39 ng/mL and 6.20 ng/mL; in data set [4] (3 mg/kg IV infusion over 5 h, 3 h, individual animal, Compound 2 as metabolite in Compound 1-dosed rats), 12.9 ng/mL and 10.6 ng/mL and 12.7 ng/mL and 12.5 ng/mL and 12.3 ng/mL; in data set [4] (setting [13]), 18.1 ng/mL and 19.6 ng/mL and 18.9 ng/mL and 20.4 ng/mL and 16.8 ng/mL. Also, the “Brain Tissue Concentration” value in data set [4] (setting [13]) was 23.6 ng/g and 20.9 ng/g and 21.0 ng/g and 21.6 ng/g and 19.8 ng/g. Further, in data set [4] (setting [13]), the “Brain/Plasma (ratios)” value is 1.30 and 1.07 and 1.11 and 1.06. The “brain exposure relative to plasma” value in [4] (Compound 2 as metabolite, rat) is reported as “essentially equal to plasma”. Further, the concentration at 5 h is 24.5 ng/g in data set [4] (rat, brain, 3 mg/kg IV infusion over 5 h, 5 h, individual animal, Compound 2 as metabolite in Compound 1-dosed rats, read-out: Brain Tissue Concentration); 21.9 ng/g in data set [4] (rat, brain, 3 mg/kg IV infusion over 5 h, 5 h, mean n=6, Compound 2 as metabolite, read-out: Brain Tissue Concentration); 18.2 ng/mL in data set [4] (rat, plasma, 3 mg/kg IV infusion over 5 h, 5 h, individual animal, Compound 2 as metabolite in Compound 1-dosed rats, read-out: Plasma Concentration); 18.7 ng/mL in [4] (rat, plasma, 3 mg/kg IV infusion over 5 h, 5 h, mean n=6, Compound 2 as metabolite, read-out: Plasma Concentration). Besides, the Kp at 5 h in data set [4] (rat, brain, 3 mg/kg IV infusion over 5 h, 5 h, individual animal, Compound 2 as metabolite in Compound 1-dosed rats) stood at 1.35; in data set [4] (rat, brain, 3 mg/kg IV infusion over 5 h, 5 h, mean n=6, Compound 2 as metabolite), 1.18. Also, the concentration at 1 h in data set [4] (rat, plasma, 3 mg/kg IV infusion over 5 h, 1 h, individual animal, Compound 2 as metabolite in Compound 1-dosed rats) was determined as 3.24 ng/mL; in data set [4] (rat, plasma, 3 mg/kg IV infusion over 5 h, 1 h, mean n=6, Compound 2 as metabolite), 3.22 ng/mL. Moreover, the concentration at 2 h in data set [4] (rat, plasma, 3 mg/kg IV infusion over 5 h, 2 h, individual animal, Compound 2 as metabolite in Compound 1-dosed rats) stood at 5.62 ng/mL; in data set [4] (rat, plasma, 3 mg/kg IV infusion over 5 h, 2 h, mean n=6, Compound 2 as metabolite), 7.06 ng/mL. The concentration at 3 h in data set [4] (rat, plasma, 3 mg/kg IV infusion over 5 h, 3 h, individual animal, Compound 2 as metabolite in Compound 1-dosed rats) stood at 12.9 ng/mL; in data set [4] (rat, plasma, 3 mg/kg IV infusion over 5 h, 3 h, mean n=6, Compound 2 as metabolite) it was 12.3 ng/mL. Moreover, in data set [5], the “targeted non-mutant kinases (bound at <1% of control)” value is “ERBB2, JAK3 (JH1-domain-catalytic), MKNK2, MTOR, OSR1 and TNK1”.

As a reminder, the Kd is the equilibrium constant for the complex coming apart. As to `C=CC(=O)Nc1cc(Nc2nccc(-c3cn(C)c4ccccc34)n2)c(OC)cc1N(C)CCN(C)C` [Osimertinib, reference compound], the “time at which study endpoint was reached” value with NSCLC brain metastases amounted to 4 weeks. Also, the IC50 is […] in data set [6]; 2.19 µM in the data set on 293-EGFRvIII cells; […] in the data set on U251-EGFRvIII cells (Homo sapiens, read-out: IC50, viability of U251-EGFRvIII cells); 2.45 µM with U251-EGFRvIII cells (Homo sapiens, read-out: IC50 on U251-EGFRvIII cell proliferation); […] in the data set with U251-EGFRvIII cells (read-out: IC50, viability of U251-EGFRvIII cells); 0.0181 µM in data set [8]. Also, the results for the Kd on PDGFRB, on ALK and on PDGFRA were 1.5 µM, 0.069 µM and 0.74 µM, respectively. The “body weight over the course of treatment” value in data set [7] is “significant body weight loss”. Also, the “Efflux Liability” value in the data set on P-gp, Bcrp is “P-gp, Bcrp”.
